{"source": "ChEMBL document CHEMBL5385964", "about": "“1,5-Disubstituted tetrazoles as PD-1/PD-L1 antagonists” (RSC Med Chem, 2024)", "note": "Activity calls are given as the source filed them. The rule behind the calls is not given here."}
{"molecular_target": "Programmed cell death protein 1/Programmed cell death 1 ligand 1 (Homo sapiens, UniProt Q15116+Q9NZQ7)", "sequence (Q15116 whole entry)": "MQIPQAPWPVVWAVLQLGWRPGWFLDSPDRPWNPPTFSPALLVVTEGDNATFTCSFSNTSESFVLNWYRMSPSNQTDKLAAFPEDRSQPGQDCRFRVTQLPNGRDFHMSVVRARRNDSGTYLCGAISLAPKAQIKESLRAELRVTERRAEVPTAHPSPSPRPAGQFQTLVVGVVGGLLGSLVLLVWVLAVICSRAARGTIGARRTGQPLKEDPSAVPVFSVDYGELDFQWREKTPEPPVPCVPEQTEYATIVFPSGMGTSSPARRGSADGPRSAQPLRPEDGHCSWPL", "sequence (Q9NZQ7 whole entry)": "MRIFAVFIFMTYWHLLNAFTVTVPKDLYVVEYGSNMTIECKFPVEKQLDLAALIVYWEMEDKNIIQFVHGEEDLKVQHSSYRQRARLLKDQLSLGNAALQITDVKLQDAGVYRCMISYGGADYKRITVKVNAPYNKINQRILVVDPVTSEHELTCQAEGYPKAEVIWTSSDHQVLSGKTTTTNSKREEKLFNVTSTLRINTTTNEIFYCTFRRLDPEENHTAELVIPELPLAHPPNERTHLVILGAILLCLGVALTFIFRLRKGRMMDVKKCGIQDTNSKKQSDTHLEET", "assay": "Antagonist activity at PD-1/PD-L1 interaction (unknown origin)", "assay_type": "protein-complex assay", "units": {"IC50": "nM"}}
{"compound": "COCCNCc1ccc(C(F)(F)F)c(/C=C/c2cccc(-c3cccc(/C=C/c4cc(CN[C@@](C)(CO)C(=O)O)ccc4C(F)(F)F)c3C)c2Cl)c1", "IC50": 2.3}
{"compound": "COc1cc(/C=C2\\CCc3c2cccc3-c2cccc3c2CC/C3=C\\c2cc(CN[C@H](CO)C(=O)O)cc(OC)c2)cc(CN[C@@H](CO)C(=O)O)c1", "IC50": 2.9}
{"compound": "Cc1c(/C=C/c2cc(CN[C@@H](CO)C(=O)O)ccc2C(F)(F)F)cccc1-c1ccc2c(c1)OCCO2", "IC50": 13}
{"molecular_target": "Programmed cell death 1 ligand 1 (Homo sapiens) (UniProt Q9NZQ7)", "sequence (Q9NZQ7 whole entry)": "as above", "assay": "Induction of human PD-L1 dimerization at 1:1 molar ratio of protein:compound by 1H NMR analysis"}
{"compound": "Cc1c(/C=C/n2nnnc2C(C)NCCCO)cccc1-c1ccc2c(c1)OCCO2", "note": "(stereo unspecified)", "Activity": "Active"}
{"compound": "CCNCc1nnnn1/C=C/c1cccc(-c2ccccc2)c1C", "Activity": "Active"}
{"compound": "Cc1c(/C=C/n2nnnc2CN2CCCOC2)cccc1-c1ccccc1", "Activity": "Active"}
